According to patent US7687079B2, “Methods of treating ileus” (priority 2002, dated 2010):
“Also recorded” adds a separate entry of the source.

What was measured:
[1] = system: IL-1β mRNA; test: IL-1β mRNA expression in muscularis externae of intestinal grafts; format: in vivo, rat
Description: To investigate the sequential analysis of cytokine mRNA expression in the mucosa and muscularis, RNase protection assay was performed with the Riboquant™ kit (Pharmingen) according to the protocol of the manufacturer. […] Quantification of radioactivity of mRNA bands was performed with NIH Image, normalized to GAPDH, and expressed as a ratio of cytokine /GAPDH (n=3-4).
The effects of inhalation of CO on transplant-induced pro-inflammatory and anti-inflammatory gene expression was assessed in muscularis extracts by RT-PCR. […] Equal aliquots (5 μg) of total RNA from each sample were quantified by spectrophotometry (wavelength […]) and aliquoted at a concentration of 40 ng/μl. Peak mRNA expression was quantified in duplicate by SYBR Green two-step, real-time RT-PCR. […] Real-time PCR data were plotted as the ΔRn, fluorescence signal versus the cycle number. […] Quantification of mRNA expression was normalized to GAPDH and calculated relative to control using the comparative CT method (Schmittgen et al., J. Biochem. Biophys. Methods 46(1-2):69-8 (2000)). […]

[2] = system: serum IL-6; test: serum IL-6 ELISA after SITx; format: in vivo, rat
Description: Serum samples were taken sequentially at 1, 4 and 24 hours after reperfusion and stored at −80° C. until evaluation. Serum cytokine concentrations, including IL-6, IL-10 and TNFα, were determined using rat enzyme-linked immunoassay (ELISA) kits as described by the manufacturer (R & D, Cambridge, Mass.).
FIG. 6 is a set of bar graphs that illustrate the effect of CO on serum IL-6 and nitrate/nitrite concentrations in animals receiving intestinal grafts at one and four hours after reperfusion. […] Serum IL-6 concentrations were determined using a rat enzyme-linked immunoassay (ELISA) kit (R&D, Cambridge, Mass.). The serum nitrite/nitrate levels, the stable end products of NO metabolism, were measured using a commercially available test kit (Cayman, Ann Arbor, Mich.). In this assay system, nitrate is reduced to nitrite using nitrate reductase, and nitrite concentration of the sample was subsequently measured using the Griess reaction. Serum IL-6 and nitrite/nitrate levels in animals subjected SITx and treated with air increased over time.

[3] = system: serum total nitrite; test: Example 3 serum total nitrite; format: in vivo, mouse; conditions: IM-CO mice
Description: Ileus was induced in mice by gentle manipulation of the small intestine. An incision was made to expose the abdominal cavity of the mouse, and bowel manipulation was performed by gentle poking and prodding of the small intestine (see, e.g., Schwarz et al., Gastroenterology 121(6):1354-1357 (2001)). The incision was subsequently closed, and analyses were performed 24 hours later. Mice were exposed to CO by inhalation (250 and 500 ppm) for 1 hour immediately prior to intestinal manipulation and during the entire 24-hour recovery period. Intestinal contractility was assessed in vitro by measuring circular muscle strip contractions in response to bethanechol (0.3-300 μM) and in vivo by determining intestinal transit from the distribution of orally-fed, fluorescein-labeled dextran and calculating geometric center as described in Example 1 above. HO-1 and IL-10 mRNA expression were determined by SYBR green real time RT-PCR from extracts of muscularis extemae, as described in Example 1 above. Release of nitric oxide (NO), a potent inhibitor of smooth muscle contractility, was estimated by measuring serum total nitrite, also described in Example 1 above.

[4] = system: rats with ileus induced by mild manipulation of the small intestine; test: Example 4 intestinal transit (geometric center) after IM, CO pre-treatment; format: in vivo, rat
Description: Ileus was induced by mild manipulation of the small intestine (IM). Rats were exposed to decreasing concentrations of CO (250, 125, 75, 30 ppm) in air for a period of either 1 hr or 3 hr prior to laparotomy (n=6). Results were compared to those obtained using previously established protocols of exposure to CO at 250 ppm 1 hr before and for 24 hr after laparotomy. Gastrointestinal function was assessed in vivo by determining intestinal transit from the distribution throughout the GI tract of orally fed fluorescein labeled dextran. The median distribution of the labeled dextran was determined for statistical comparison by calculating the geometric center (GC).

[C-]#[O+] [CO, carbon monoxide] was tested, and the “IL-1β mRNA” value ([1]; SITx + CO, Table 2) was 6.6 + 0.1 % GAPDH, the “reduction of mean relative IL-1β mRNA expression” value ([1]; SITx recipients treated with CO vs SITx, 4 hours after reperfusion, p=0.046) was 50% and the “serum IL-6 level” value ([2]; SITx + CO vs SITx with air) was “significantly decreased; also recorded: significantly lower”. For the same compound, the “Serum IL-6” value ([2]; SITx + CO, 4 hours after reperfusion, Table 2) was 1439 pg/mL, the serum nitrite [3] was 6.0 ± 1.6 µM and the “geometric center (GC)” value ([4]; IM rats, 250 ppm for 1 hr only prior to surgery) was 7.2±0.3. For the same compound, the “geometric center (GC)” value ([4]; IM rats, 250 ppm pretreatment for 3 hr) was 8.6±0.3, the “geometric center (GC)” value ([4]; IM rats, 250 ppm, 1 hr pretreatment followed by 24 hr post-treatment) was 8.2±0.4 and the “geometric center (GC)” value ([4]; IM rats, pre-treating with 30 ppm) was 7.0±0.2. The “geometric center (GC)” value ([4]; IM rats, pre-treating with 75 ppm) was 8.8±0.1, the “geometric center (GC)” value ([4]; IM rats, pre-treating with 125 ppm) was 8.6±0.4 and the “geometric center (GC)” value ([4]; unoperated rats, 250 ppm for 24 hr) was 8.8±0.4.
